The values below are quoted from earlier work in patent US6632839B2, “Capsicum based disinfectant and sterilizant” (priority 1997, dated 2003).

Read-outs that look alike come from different tables or passages of the source.

The conditions of this series: for Solubility in water: water / cold water.

Turning to `COc1cc(CNC(=O)CCCC/C=C/C(C)C)ccc1O` [Capsaicin, N-vanillyl-8-methyl-6-(E)-noneamide], the “Solubility in alcohol, fats, oils” value is “very soluble in fats, oils and alcohol”; the Solubility in water entry is reported as “sparingly soluble in water”. Further, for the setting “listed as capsaicin”, the “Solubility in alcohol, fats, oils” value is on record as “soluble in alcohol” and the Solubility in water entry is listed as “insoluble in cold water”.
